Series [1] can be described thus: Encapsulation efficiency of RNA in nanoparticle compositions (RIBOGREEN assay). Type of series: physicochemical. Summed up: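 Lipid nanoparticles (ionisable lipid:DSPC:cholesterol:PEG-DMG 50:10:38.5:1.5 mol %) carrying N1-methylpseudouridine luciferase or hEPO mRNA diluted to about 5 μg/mL in TE, pH 7.5, with or without 2% Triton X-100, 15 min at 37° C. RiboGreen fluorescence (ex ~480, em ~520 nm) blank-subtracted; free RNA = intact/disrupted signal.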

The next series has as its system IL-6, IP-10. As to the kind of experiment: Cytokine induction (IL-6, IP-10) in mice 6 hours after intravenous administration. On the set-up: unit not given here. Type of series: in vivo. The conditions noted are these: intravenous 0.5 mpk. The source says:
The introduction of foreign material into a mammalian body induces an innate immune response that promotes cytokine production. Such immune responses to, for example, nanoparticle compositions including therapeutic and/or prophylactics, are undesirable. The induction of certain cytokines is thus measured to evaluate the […] of nanoparticle compositions. The concentrations of various cytokines in mice upon intravenous administration of nanoparticle compositions presented in Table 1A at a dosage of 0.5 mpk was measured at 6 hours. The standard MC3 formulation and a PBS control were also tested. As is evident in Table 7, IL-6 induction was highest for compositions including Compounds 1, 3, 9, 19, and 26, while IP-10 induction was highest for compositions including Compounds 3, 4, 7, 20, and 26. IL-6 induction was lowest for compositions including Compounds 4, 11, 12, and 28. IP-10 induction was lowest for compositions including Compounds 10, 11, 12, 13, 15, 17, and 18.

A further series concerns modified luciferase. As to the kind of experiment: Luciferase expression in liver, lung, spleen and femur 6 hours after intravenous administration to mice. Type of series: in vivo. The note with it: for Total Flux, Femur / Total Flux, Liver / Total Flux, Lung / Total Flux, Spleen: 6 hours after intravenous 0.5 mpk, mice. The method, boiled down: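 Nanoparticle formulations of the modified luciferase were given intravenously to mice (n=3) at 0.5 mpk. Bioluminescence was measured after 6 hours as total light flux. Standard MC3 formulation and PBS run as controls.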

The nature of series [2]: Particle size and polydispersity index of nanoparticle compositions (Zetasizer Nano ZS). Type of series: physicochemical. Summed up:
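Size and PDI measured by Zetasizer Nano ZS in 1×PBS (zeta potential in 15 mM PBS). Lipid nanoparticles contained test ionizable lipid:DSPC:cholesterol:PEG-DMG at 50:10:38.5:1.5 mol % with N1-methyl-pseudouridine mRNA encoding luciferase or hEPO.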

In the next series the test system is luciferase (Luc) mRNA. As to the kind of experiment: Luciferase expression (whole body bioluminescence) after intravenous administration to mice. In kind it is in vivo. The note with it: intravenous; for Novel lipid/MC3 expression ratio, i.v.: luciferase, 6 hr. time point, relative to MC3 formulation. The method, boiled down: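 Mice (n=6) received lipid nanoparticle formulations carrying luciferase mRNA intravenously at 0.5 mg/kg. Whole-body bioluminescence was measured at 3, 6 and 24 h. Total flux was taken as area under the curve and expressed relative to a standard MC3 formulation.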

The test system of another series is hEPO mRNA. As to the kind of experiment: hEPO expression after intravenous administration to rats. In kind it is in vivo, rat. The note with it: Table 19B, ratio to MC3. On the procedure: The expression of hEPO and cytokine induction in rats intravenously administered a nanoparticle composition at a dose of 2.0 mpk was measured at 6 h.
The expression of hEPO in rats intravenously administered a nanoparticle composition at a dose of 0.2 mpk or 2.0 mpk was measured at 6 hours. Table 16 summarize the ratio of hEPO expression levels using various nanoparticle compositions as compared to the hEPO expression level using MC3 formulation and the lipid levels in the liver measured 48 hours after administration, as described above. Tables 17 and 18 summarize the lipid levels in the liver and spleen measured 48 hours after administration of Compounds 28, 33, 53, and 54. Liver and spleen levels represent the average values calculated for 3 rats in each group. As is shown in Tables 17 and 18, less than 10% of Compounds 28, 33, 53, and 54 remained in the liver after 48 hours, while greater than 60% of MC3 remained.
Table 19A summarizes the hEPO expression, IP-10 induction, liver and spleen levels, and alanine aminotransferase (ALT) and aspartate aminotransferase (AST) measured upon intravenous administration of formulations including Compounds 48, 49, and 50 to rat at 0.2 and 2 mpk and hEPO mRNA. hEPO concentrations were measured 6 hours after administration, while cytokine induction and liver and spleen levels were measured 48 hours after administration. hEPO and IP-10 concentrations are presented in pg/ml, while liver levels are provided in ng/g. ALT and AST levels are presented in international units.
The expression of hEPO induced by intravenous administration to rats of nanoparticle compositions at various doses was measured at 2, 4, 6, 8, 24, and 48 hour time points. FIGS. 3-6 respectively summarize the hEPO expression measured upon intravenous administration of formulations including Compounds 26, 18, 25, and MC3 to rat at various doses. The lipid levels of Compound 26 in the liver after 48 hours were about 19%.
The expression of hEPO and lipid levels in the liver and spleen in rats intravenously administered a nanoparticle composition at a dose of 0.2 mpk was measured at various time points. Compounds 18 and 25 were selected for comparison with MC3. Lipids were formulated according to the standard MC3 formulation described above. Rats were administered intravenously a single 0.2 mpk dose and expression monitored at 0.25, 0.5, 1, 2, 4, 8, 24, and 48 hours after administration.

[3] abbreviates: Table 1A, lipid:DSPC:cholesterol:PEG-DMG 50:10:38.5:1.5 mol %.
Where [4] appears, read: Table 1B, formulated with hEPO mRNA.

These results are taken from US10857105B2, “Compounds and compositions for intracellular delivery of therapeutic agents” (ModernaTX, Inc., priority 2017, dated 2020).

Each structure is given as a SMILES string.

The compound `CCCCCCCCCOC(=O)CCCCCCCN(CCCCCCCC(=O)OC(CCCCCCCC)CCCCCCCC)CCOC` [Compound 15, Heptadecan-9-yl 8-((2-methoxyethyl)(8-(nonyloxy)-8-oxooctyl)amino)octanoate] gave an EE in series [1] (setting [3]) of 92.47%. Further, in the series with IL-6, IP-10, the “Cytokine induction, IL-6” value was 64.65 and the “Cytokine induction, IP-10” value is 184.30. In addition, in the series on modified luciferase, the “Total Flux, Femur” value turned out to be 5.93E+04; the “Total Flux, Liver” value is on record as 6.23E+06; the “Total Flux, Lung” value worked out at 6.41E+04; the “Total Flux, Spleen” value is listed as 9.01E+05. The same compound had a Size in series [2] (setting [3]) of 111.1 nm.
As for `CCCCCCCCCOC(=O)CCCCCCCN(CCCCCCCC(=O)OC(CCCCCCCC)CCCCCCCC)CCCOC` [Compound 16, Heptadecan-9-yl 8-((3-methoxypropyl)(8-(nonyloxy)-8-oxooctyl)amino) octanoate], in series [1] (setting [3]), the EE came out at 91.32%. Moreover, in the series with IL-6, IP-10, the “Cytokine induction, IL-6” value was 32.01 and the “Cytokine induction, IP-10” value was 206.75. In addition, in the series on modified luciferase, the “Total Flux, Femur” value is listed as 2.55E+05; the “Total Flux, Liver” value is 3.17E+07; the “Total Flux, Lung” value is given as 4.18E+05; the “Total Flux, Spleen” value was 5.43E+06. In addition, the Size in series [2] (setting [3]) is 119.0 nm.
Compound `CCCCCCCCCOC(=O)CCCCCCCN(CCCCCCCC(=O)OC(CCCCCCCC)CCCCCCCC)CCOCCN(C)C` [Compound 17, Heptadecan-9-yl 8-((2-(2-(dimethylamino)ethoxy)ethyl) (8-(nonyloxy)-8-oxooctyl)amino)octanoate] displayed an EE in series [1] (setting [3]) of 91.84%. In the series on IL-6, IP-10, the “Cytokine induction, IL-6” value was found to be 138.43 and the “Cytokine induction, IP-10” value came to 156.41. For the same compound, in the series with modified luciferase, the “Total Flux, Femur” value is 9.55E+04; the “Total Flux, Liver” value is given as 5.52E+05; the “Total Flux, Lung” value is 9.95E+04; the “Total Flux, Spleen” value is given as 5.58E+06. The compound also yielded a Size in series [2] (setting [3]) of 85.2 nm.
As for `CCCCCCCCCOC(=O)CCCCCCCN(CCCO)CCCCCCCC(=O)OC(CCCCCCCC)CCCCCCCC` [Compound 19, Heptadecan-9-yl 8-((3-hydroxypropyl)(8-(nonyloxy)-8-oxooctyl)amino) octanoate], in the series with IL-6, IP-10, the “Cytokine induction, IL-6” value stood at 285.56 and the “Cytokine induction, IP-10” value is listed as 1468.94. Also, in the series on modified luciferase, the “Total Flux, Femur” value was found to be 1.68E+06; the “Total Flux, Liver” value is recorded as 6.33E+08; the “Total Flux, Lung” value is given as 5.99E+06; the “Total Flux, Spleen” value was 1.77E+07. In series [2] (setting [3]), this compound registered a Size of 101.1 nm. This compound gave a Size in series [2] (Table 1E, compositions for subcutaneous administration) of 80.7 nm. Further, the “Novel lipid/MC3 expression ratio, i.v.” value with luciferase (Luc) mRNA is 0.96.
In turn, `CCCCCCCCCOC(=O)CCCCCCCN(CCCCCCCC(=O)OC(CCCCCCCC)CCCCCCCC)C1CCCCC1O` (centres unmarked) [Compound 22, Heptadecan-9-yl 8-((2-hydroxycyclohexyl)(8-(nonyloxy)-8-oxooctyl)amino)octanoate] yielded an EE in series [1] (setting [3]) of 96.00%. Moreover, in the series with IL-6, IP-10, the “Cytokine induction, IL-6” value worked out at 90.54 and the “Cytokine induction, IP-10” value is reported as 976.50. In addition, in the series on modified luciferase, the “Total Flux, Femur” value was 1.16E+05; the “Total Flux, Liver” value was determined as 4.00E+07; the “Total Flux, Lung” value is recorded as 4.73E+05; the “Total Flux, Spleen” value amounted to 1.57E+06. Further, the Size in series [2] (setting [3]) was determined as 80.2 nm.
Turning to `CCCCCCCCCCCCN(CCO)CCCCCCCCCCCC(=O)OC` [Compound 137, Methyl 12-(dodecyl(2-hydroxyethyl)amino)dodecanoate], the EE in series [1] (setting [3]) was found to be 85.7%. In the series with IL-6, IP-10, the “Cytokine induction, IL-6” value was found to be 130.82 and the “Cytokine induction, IP-10” value is 234.35. For the same compound, in the series with modified luciferase, the “Total Flux, Femur” value came to 2.02E+04; the “Total Flux, Liver” value was found to be 6.48E+04; the “Total Flux, Lung” value came out at 1.66E+04; the “Total Flux, Spleen” value is given as 1.32E+05. In the series with modified luciferase (mice (n=3), intravenous, 0.5 mpk, 6 hours), the “Flux in the liver” value is reported as “lowest”. In series [2] (setting [3]), the PDI was under 1. Further, in the series with luciferase (Luc) mRNA (mice, 0.5 mg/kg, 3, 6 and 24 hours), the “Flux at all timepoints measured” value is on record as “significantly lower flux”.
In turn, `CCCCCCCC/C=C\COC(=O)CCCCCN(CCO)CCCCCC(=O)OC/C=C\CCCCCCCC` [Compound 140, Di((Z)-undec-2-en-1-yl) 6,6′-((2-hydroxyethyl)azanediyl)dihexanoate] came in with an EE in series [1] (setting [3]) of 89.2%. In the series with IL-6, IP-10, the “Cytokine induction, IL-6” value is on record as 282.82 and the “Cytokine induction, IP-10” value amounted to 187.83. In addition, in the series with modified luciferase, the “Total Flux, Femur” value is recorded as 3.26E+04; the “Total Flux, Liver” value worked out at 4.21E+05; the “Total Flux, Lung” value is on record as 2.14E+04; the “Total Flux, Spleen” value is on record as 2.22E+05. In series [2] (setting [3]), this compound came in with a Size of 120.3 nm.
In turn, `CCCCCCCCCCCOC(=O)CCCCCN(CCO)CCCCCC(=O)OCCCCCCCCCCC` [Compound 141, Diundecyl 6,6′-((2-hydroxyethyl)azanediyl)dihexanoate] returned an EE in series [1] (setting [3]) of 94.1%. In addition, in the series on IL-6, IP-10, the “Cytokine induction, IL-6” value is reported as 327.15 and the “Cytokine induction, IP-10” value came to 1072.04. In the series with modified luciferase, the “Total Flux, Femur” value is reported as 2.86E+04; the “Total Flux, Liver” value is reported as 1.59E+05; the “Total Flux, Lung” value worked out at 3.85E+04; the “Total Flux, Spleen” value is reported as 6.29E+04. The compound further registered a Size in series [2] (setting [3]) of 91.3 nm.
The compound `CCCCCCCCCOC(=O)CCCCCCCN(CCO)CCCCCCC(=O)OCC(CCCCCCCC)CCCCCCCC` [Compound 143, Nonyl 8-((2-hydroxyethyl)(7-((2-octyldecyl)oxy)-7-oxoheptyl)amino)octanoate] displayed an EE in series [1] (setting [3]) of 97.37%. For the same compound, in the series with IL-6, IP-10, the “Cytokine induction, IL-6” value was determined as 6.245 and the “Cytokine induction, IP-10” value was determined as 209.63. In the series on modified luciferase, the “Total Flux, Liver” value was 1.76E+09; the “Total Flux, Lung” value amounted to 3.60E+07; the “Total Flux, Spleen” value came to 1.42E+08. Further, the Size in series [2] (setting [3]) amounted to 98.8 nm. The “Novel lipid/MC3 expression ratio, i.v.” value in the series with luciferase (Luc) mRNA was 0.44.
With `CCCCCCCCCOC(=O)CCCCCCCN(CCO)CCCCCCCC(=O)N(CCCCCCCC)CCCCCCCC` [Compound 144, Nonyl 8-((8-(dioctylamino)-8-oxooctyl)(2-hydroxyethyl)amino)octanoate], the EE in series [1] (setting [3]) came out at 90.3%. In the series on IL-6, IP-10, the “Cytokine induction, IL-6” value is on record as 319.46 and the “Cytokine induction, IP-10” value is 4220.55. In the series on modified luciferase, the “Total Flux, Femur” value was determined as 2.44E+06; the “Total Flux, Liver” value stood at 3.75E+08; the “Total Flux, Lung” value is 4.81E+06; the “Total Flux, Spleen” value stood at 5.11E+07. Besides, in series [2] (setting [3]), the Size amounted to 135.9 nm.
Consider `CCCCCCCCC(CCCCCCCC)OC(=O)CCCCCCCN(CCO)CCCCCCCCCC(=O)OCCCCCCC` [Compound 189, Heptyl 10-((8-(heptadecan-9-yloxy)-8-oxooctyl)(2-hydroxyethyl)amino)decanoate], for which the EE in series [1] (setting [4]) came out at 93.9%. Also, the Size in series [2] (setting [4]) was 95.5 nm. Moreover, the “[hEPO] Lipid/MC3” value with hEPO mRNA was found to be 3.01E+06.
